Measured values from patent US10125138B2, “Triazolotriazinone derivatives having activity a s herbicides” (Syngenta Participations AG, priority 2015, dated 2018).

Tests used:
Format in all cases: in vivo
Conditions in all cases: 1000 g/h, evaluated after 13 days, five point scale
[1] = tested on: Lolium perenne (LOLPE); test: Post-emergence glasshouse herbicide test, Lolium perenne
Method: (§1) Seeds of a variety of test species are sown in standard soil in pots (Lolium perenne (LOLPE), Solanum nigrum (SOLNI), Amaranthus retoflexus (AMARE), Setaria faberi (SETFA), Echinochloa crus-galli (ECHCG), Ipomoea hederacea (IPOHE)). After cultivation for one day (pre-emergence) or after 8 days cultivation (post-emergence) under controlled conditions in a glasshouse (at 24/16° C., day/night; 14 hours light; 65% humidity), the plants are sprayed with an aqueous spray solution derived from the formulation of the technical active ingredient in acetone/water (50:50) solution containing 0.5% Tween 20 (polyoxyethelyene sorbitan monolaurate, CAS RN 9005-64-5). […] The test plants are then grown in a glasshouse under controlled conditions in a glasshouse (at 24/16° C., day/night; 14 hours light; 65% humidity) and watered twice daily. After 13 days for pre and post-emergence, the test is evaluated for the percentage damage caused to the plant. The biological activities are shown in the following table on a five point scale (5=80-100%; 4=60-79%; 3=40-59%; 2=20-39%; 1=0-19%).

[2] = tested on: Amaranthus retoflexus (AMARE); test: Post-emergence glasshouse herbicide test, Amaranthus retoflexus
Method: as §1

[3] = tested on: Echinochloa crus-galli (ECHCG); test: Post-emergence glasshouse herbicide test, Echinochloa crus-galli
Method: as §1

[4] = tested on: Ipomoea hederacea (IPOHE); test: Pre-emergence glasshouse herbicide test, Ipomoea hederacea
Method: as §1

[5] = tested on: Lolium perenne (LOLPE); test: Pre-emergence glasshouse herbicide test, Lolium perenne
Method: as §1

[6] = tested on: Solanum nigrum (SOLNI); test: Pre-emergence glasshouse herbicide test, Solanum nigrum
Method: (§2) Seeds of a variety of test species are sown in standard soil in pots (Lolium perenne (LOLPE), Solanum nigrum (SOLNI), Amaranthus retoflexus (AMARE), Setaria faberi (SETFA), Echinochloa crus-galli (ECHCG), Ipomoea hederacea (IPOHE)). After cultivation for one day (pre-emergence) or after 8 days cultivation (post-emergence) under controlled conditions in a glasshouse (at 24/16° C., day/night; 14 hours light; 65% humidity), the plants are sprayed with an aqueous spray solution derived from the formulation of the technical active ingredient in acetone/water (50:50) solution containing 0.5% Tween 20 (polyoxyethelyene sorbitan monolaurate, CAS RN 9005-64-5). Compounds are applied at 1000 g/h. The test plants are then grown in a glasshouse under controlled conditions in a glasshouse (at 24/16° C., day/night; 14 hours light; 65% humidity) and watered twice daily. After 13 days for pre and post-emergence, the test is evaluated for the percentage damage caused to the plant. The biological activities are shown in the following table on a five point scale (5=80-100%; 4=60-79%; 3=40-59%; 2=20-39%; 1=0-19%).

[7] = tested on: Solanum nigrum (SOLNI); test: Post-emergence glasshouse herbicide test, Solanum nigrum
Method: as §2

[8] = tested on: Amaranthus retoflexus (AMARE); test: Pre-emergence glasshouse herbicide test, Amaranthus retoflexus
Method: as §1

[9] = tested on: Ipomoea hederacea (IPOHE); test: Post-emergence glasshouse herbicide test, Ipomoea hederacea
Method: as §1

[10] = tested on: Setaria faberi (SETFA); test: Post-emergence glasshouse herbicide test, Setaria faberi
Method: as §1

[11] = tested on: Echinochloa crus-galli (ECHCG); test: Pre-emergence glasshouse herbicide test, Echinochloa crus-galli
Method: as §1

[12] = tested on: Setaria faberi (SETFA); test: Pre-emergence glasshouse herbicide test, Setaria faberi
Method: as §1

SMILES	percentage damage caused to the plant, POST Application LOLPE [1]	percentage damage caused to the plant, POST Application AMARE [2]	percentage damage caused to the plant, POST Application ECHCG [3]	percentage damage caused to the plant, PRE Application IPOHE [4]	percentage damage caused to the plant, PRE Application LOLPE [5]	percentage damage caused to the plant, PRE Application SOLNI [6]	percentage damage caused to the plant, POST Application SOLNI [7]	percentage damage caused to the plant, PRE Application AMARE [8]	percentage damage caused to the plant, POST Application IPOHE [9]	percentage damage caused to the plant, POST Application SETFA [10]	percentage damage caused to the plant, PRE Application ECHCG [11]	percentage damage caused to the plant, PRE Application SETFA [12]
CCn1nnnc1NC(=O)c1nn2cnn(-c3ccc(OC)cc3)c2nc1=O [Compound 1.034]	4 (4=60-79%)	5 (5=80-100%)	5 (5=80-100%)	3 (3=40-59%)	4 (4=60-79%)	5 (5=80-100%)	5 (5=80-100%)	5 (5=80-100%)	5 (5=80-100%)	5 (5=80-100%)	5 (5=80-100%)	5 (5=80-100%)
CCCn1nnnc1NC(=O)c1nn2cnn(-c3ccc(OC)cc3)c2nc1=O [Compound 1.035]	5 (5=80-100%)	4 (4=60-79%)	5 (5=80-100%)	5 (5=80-100%)	5 (5=80-100%)	5 (5=80-100%)	5 (5=80-100%)	5 (5=80-100%)	5 (5=80-100%)	4 (4=60-79%)	5 (5=80-100%)	5 (5=80-100%)
CCCn1nnnc1NC(=O)c1nn2cnn(-c3cccc(OC)c3)c2nc1=O [Compound 1.036]	5 (5=80-100%)	5 (5=80-100%)	4 (4=60-79%)	4 (4=60-79%)	5 (5=80-100%)	5 (5=80-100%)	5 (5=80-100%)	5 (5=80-100%)	5 (5=80-100%)	5 (5=80-100%)	5 (5=80-100%)	5 (5=80-100%)
CCn1nnnc1NC(=O)c1nn2cnn(-c3ccc(F)cc3)c2nc1=O [Compound 1.037]	4 (4=60-79%)	5 (5=80-100%)	5 (5=80-100%)	5 (5=80-100%)	4 (4=60-79%)	5 (5=80-100%)	5 (5=80-100%)	5 (5=80-100%)	4 (4=60-79%)	5 (5=80-100%)	5 (5=80-100%)	5 (5=80-100%)
CCCn1nnnc1NC(=O)c1nn2cnn(-c3ccc(F)cc3)c2nc1=O [Compound 1.038]	5 (5=80-100%)	5 (5=80-100%)	5 (5=80-100%)	5 (5=80-100%)	4 (4=60-79%)	5 (5=80-100%)	5 (5=80-100%)	5 (5=80-100%)	5 (5=80-100%)	5 (5=80-100%)	5 (5=80-100%)	5 (5=80-100%)
CCCCn1nnnc1NC(=O)c1nn2cnn(-c3ccc(F)cc3)c2nc1=O [Compound 1.039]	5 (5=80-100%)	5 (5=80-100%)	5 (5=80-100%)	4 (4=60-79%)	5 (5=80-100%)	5 (5=80-100%)	5 (5=80-100%)	5 (5=80-100%)	5 (5=80-100%)	5 (5=80-100%)	5 (5=80-100%)	5 (5=80-100%)
CCCCn1nnnc1NC(=O)c1nn2cnn(-c3ccc(OC)cc3)c2nc1=O [Compound 1.040]	5 (5=80-100%)	4 (4=60-79%)	3 (3=40-59%)	5 (5=80-100%)	5 (5=80-100%)	5 (5=80-100%)	5 (5=80-100%)	3 (3=40-59%)	5 (5=80-100%)	4 (4=60-79%)	5 (5=80-100%)	5 (5=80-100%)
CCn1nnnc1NC(=O)c1nn2cnn(-c3ccc(C(F)(F)F)cc3)c2nc1=O [Compound 1.042]	3 (3=40-59%)	4 (4=60-79%)	3 (3=40-59%)	4 (4=60-79%)	4 (4=60-79%)	5 (5=80-100%)	5 (5=80-100%)	5 (5=80-100%)	4 (4=60-79%)	4 (4=60-79%)	5 (5=80-100%)	5 (5=80-100%)
CCCn1nnnc1NC(=O)c1nn2cnn(-c3ccc(C(F)(F)F)cc3)c2nc1=O [Compound 1.043]	3 (3=40-59%)	5 (5=80-100%)	1 (1=0-19%)	3 (3=40-59%)	3 (3=40-59%)	5 (5=80-100%)	5 (5=80-100%)	4 (4=60-79%)	4 (4=60-79%)	4 (4=60-79%)	2 (2=20-39%)	5 (5=80-100%)
CCCCn1nnnc1NC(=O)c1nn2cnn(-c3ccc(C(F)(F)F)cc3)c2nc1=O [Compound 1.044]	3 (3=40-59%)	4 (4=60-79%)	1 (1=0-19%)	3 (3=40-59%)	3 (3=40-59%)	5 (5=80-100%)	5 (5=80-100%)	3 (3=40-59%)	5 (5=80-100%)	3 (3=40-59%)	2 (2=20-39%)	3 (3=40-59%)
